A word on the IC50: it is the concentration that gives 50% inhibition. By Ki is commonly meant a measure of affinity in units of concentration, obtained from inhibition or displacement.

One assay deals with Adenosine receptor A2a (Homo sapiens, UniProt P29274). The assay can be described thus: DRUGMATRIX: Adenosine A2A radioligand binding (ligand: […]). It is filed as cell membranes, HEK293, Membrane. The following applies: Not Active = under 50% inhibition at 10 µM.
The next assay has as its target T1, Progesterone receptor (Bos taurus, UniProt Q690N0).
T1 sequence (Q690N0 whole entry): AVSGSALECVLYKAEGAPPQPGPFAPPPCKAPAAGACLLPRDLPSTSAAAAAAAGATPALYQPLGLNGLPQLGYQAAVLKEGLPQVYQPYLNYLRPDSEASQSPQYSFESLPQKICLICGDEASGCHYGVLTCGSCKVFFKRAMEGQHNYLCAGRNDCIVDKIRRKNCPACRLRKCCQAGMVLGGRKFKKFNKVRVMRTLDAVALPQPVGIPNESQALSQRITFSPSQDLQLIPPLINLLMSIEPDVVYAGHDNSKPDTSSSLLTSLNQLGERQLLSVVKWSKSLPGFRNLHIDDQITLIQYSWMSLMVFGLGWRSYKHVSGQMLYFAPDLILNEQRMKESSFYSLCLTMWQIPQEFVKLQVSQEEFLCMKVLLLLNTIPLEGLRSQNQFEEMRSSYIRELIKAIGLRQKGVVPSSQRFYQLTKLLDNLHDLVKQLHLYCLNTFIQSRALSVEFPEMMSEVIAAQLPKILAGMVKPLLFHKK
The assay can be described thus: DRUGMATRIX: Progesterone radioligand binding (ligand: [3H] R-5020). The assay is classed as tissue-based, Uterus. As to conditions: Not Active = under 50% inhibition at 10 µM.

A short description of assay [1]: DRUGMATRIX: ATPase, Na+/K+ enzyme inhibition (substrate: ATP). The assay is classed as tissue-based, Sus scrofa, Heart. The following applies: Not Active = under 50% inhibition at 10 µM.
The target of assay [2] is Beta-1 adrenergic receptor (Homo sapiens, UniProt P08588). The assay can be described thus: DRUGMATRIX: Adrenergic beta1 radioligand binding (ligand: [125I] Cyanopindolol). The assay is classed as cell membranes, CHO-K1, Membrane. As to conditions: cho-k1; Not Active = under 50% inhibition at 10 µM.
In assay [3] the target is Sigma non-opioid intracellular receptor 1 (Homo sapiens, UniProt Q99720). The assay can be described thus: DRUGMATRIX: Sigma1 radioligand binding (ligand: [3H] Haloperidol). As to conditions: Not Active = under 50% inhibition at 10 µM. The assay is classed as cell membranes, Jurkat, Membrane.
Sequence of Sigma non-opioid intracellular receptor 1 (Q99720 whole entry): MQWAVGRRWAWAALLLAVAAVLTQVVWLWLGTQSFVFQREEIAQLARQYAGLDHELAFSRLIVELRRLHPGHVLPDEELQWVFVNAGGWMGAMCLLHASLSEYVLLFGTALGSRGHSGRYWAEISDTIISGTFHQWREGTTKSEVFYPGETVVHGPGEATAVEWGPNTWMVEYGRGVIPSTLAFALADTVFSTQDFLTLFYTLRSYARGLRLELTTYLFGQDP

Sequence of Adenosine receptor A2a (P29274 whole entry): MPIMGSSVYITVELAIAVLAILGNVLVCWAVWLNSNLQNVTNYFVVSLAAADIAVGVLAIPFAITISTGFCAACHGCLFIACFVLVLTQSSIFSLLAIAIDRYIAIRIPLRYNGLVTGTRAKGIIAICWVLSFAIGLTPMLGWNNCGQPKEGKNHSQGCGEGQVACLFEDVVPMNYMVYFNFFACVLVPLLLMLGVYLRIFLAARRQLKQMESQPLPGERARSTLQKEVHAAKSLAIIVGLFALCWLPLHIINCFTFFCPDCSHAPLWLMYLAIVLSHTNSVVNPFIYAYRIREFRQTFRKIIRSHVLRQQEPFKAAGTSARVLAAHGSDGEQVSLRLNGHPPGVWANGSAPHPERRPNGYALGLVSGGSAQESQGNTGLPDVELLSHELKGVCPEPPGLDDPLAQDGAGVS
Sequence of Beta-1 adrenergic receptor (P08588 whole entry): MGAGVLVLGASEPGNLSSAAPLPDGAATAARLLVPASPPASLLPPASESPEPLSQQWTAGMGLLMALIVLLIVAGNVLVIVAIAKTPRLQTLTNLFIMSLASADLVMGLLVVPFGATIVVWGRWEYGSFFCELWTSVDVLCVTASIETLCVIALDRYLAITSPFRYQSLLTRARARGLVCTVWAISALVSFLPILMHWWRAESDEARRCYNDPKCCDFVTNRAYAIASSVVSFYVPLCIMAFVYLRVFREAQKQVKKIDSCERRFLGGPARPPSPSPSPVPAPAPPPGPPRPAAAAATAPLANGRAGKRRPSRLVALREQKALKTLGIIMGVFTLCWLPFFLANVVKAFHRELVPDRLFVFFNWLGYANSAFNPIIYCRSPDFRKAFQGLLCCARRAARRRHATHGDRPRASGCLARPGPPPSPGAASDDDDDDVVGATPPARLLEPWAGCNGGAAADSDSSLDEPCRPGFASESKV

Turning to `CC(C)c1cccc(C(C)C)c1O` [PROPOFOL], the IC50 result (at Adenosine receptor A2a (hek293); on Progesterone receptor; in assay [1]; in assay [2]; in assay [3] (jurkat)) was “Not Active” each time. For the same compound, in assay [1], the Ki entry is recorded as “Not Active”.
Take `COC(=O)Nc1nc2ccc(C(=O)c3cccs3)cc2[nH]1` [NOCODAZOLE]: the IC50 at Adenosine receptor A2a (read-out: IC50) was 7.51 µM; at Progesterone receptor, “Not Active”; in assay [1] it was “Not Active”; in assay [2], “Not Active”; in assay [3] (jurkat), “Not Active”. Moreover, the Ki on Adenosine receptor A2a (read-out: Ki) is 4.22 µM; in assay [1], “Not Active”.
As for AURANOFIN, the IC50 result (at Adenosine receptor A2a (hek293); at Progesterone receptor; in assay [1]; in assay [2]; in assay [3] (jurkat)) was “Not Active” each time. Besides, the Ki result (on Adenosine receptor A2a (hek293); on Progesterone receptor; in assay [1]; in assay [2]; in assay [3] (jurkat)) was “Not Active” in each case.
`Cc1nnc2n1-c1ccc(Cl)cc1C(c1ccccc1)=NC2` [ALPRAZOLAM]: the IC50 result (at Adenosine receptor A2a (hek293); on Progesterone receptor; in assay [1]; in assay [2]; in assay [3] (jurkat)) was “Not Active” throughout. The Ki result in assay [1] is given as “Not Active”.
`CC(=O)[C@H]1[C@H](C#N)C[C@H]2[C@@H]3CC=C4C[C@@H](O)CC[C@]4(C)[C@H]3CC[C@@]21C` [PREGNENOLONE CARBONITRILE]: the IC50 result at Adenosine receptor A2a (hek293) is “Not Active”; on Progesterone receptor, “Not Active”; in assay [1], “Not Active”; in assay [2], “Not Active”; in assay [3] (read-out: IC50), 21.3 µM. Moreover, the Ki result in assay [1] was “Not Active”; in assay [3] (read-out: Ki), 8.95 µM.
In the case of `C[C@@H]1CC[C@@]2(OC1)O[C@H]1[C@@H](O)[C@H]3[C@@H]4CC[C@H]5C[C@@H](O[C@@H]6O[C@H](CO)[C@H](O[C@@H]7O[C@H](CO)C(O)[C@H](O[C@@H]8OC[C@@H](O)[C@H](O)[C@H]8O)[C@H]7O[C@@H]7O[C@H](CO)[C@H](O)[C@H](O[C@@H]8O[C@H](CO)[C@@H](O)[C@H](O)[C@H]8O)[C@H]7O)[C@H](O)[C@H]6O)[C@H](O)C[C@]5(C)[C@H]4CC[C@]3(C)[C@H]1[C@@H]2C` (some centres not stated) [DIGITONIN], the IC50 result (on Adenosine receptor A2a (hek293); at Progesterone receptor; in assay [1]; in assay [2]; in assay [3] (jurkat)) was “Not Active” throughout. Moreover, the Ki result in assay [1] is “Not Active”.
